Assay results as given in US20230310445A1, “LOX ENZYME INHIBITING METHODS AND COMPOSITIONS” (ANOVIA BIOSCIENCES, INC., priority 2020, published 2023).

Assays:
[1] = biological target: T1, Recombinant human LOXL2 (lysyl oxidase like 2) (Homo sapiens, UniProt Q9Y4K0); assay: LOXL2 inhibition assay (fluorometric, cadaverine/Amplex Red/HRP); assay type: biochemical; settings: IC50 class; recombinant human LOXL2, cadaverine substrate; read-out: Activity Range LOXL2
T1 construct: purchased R&D systems
T1 sequence (Q9Y4K0 26-774): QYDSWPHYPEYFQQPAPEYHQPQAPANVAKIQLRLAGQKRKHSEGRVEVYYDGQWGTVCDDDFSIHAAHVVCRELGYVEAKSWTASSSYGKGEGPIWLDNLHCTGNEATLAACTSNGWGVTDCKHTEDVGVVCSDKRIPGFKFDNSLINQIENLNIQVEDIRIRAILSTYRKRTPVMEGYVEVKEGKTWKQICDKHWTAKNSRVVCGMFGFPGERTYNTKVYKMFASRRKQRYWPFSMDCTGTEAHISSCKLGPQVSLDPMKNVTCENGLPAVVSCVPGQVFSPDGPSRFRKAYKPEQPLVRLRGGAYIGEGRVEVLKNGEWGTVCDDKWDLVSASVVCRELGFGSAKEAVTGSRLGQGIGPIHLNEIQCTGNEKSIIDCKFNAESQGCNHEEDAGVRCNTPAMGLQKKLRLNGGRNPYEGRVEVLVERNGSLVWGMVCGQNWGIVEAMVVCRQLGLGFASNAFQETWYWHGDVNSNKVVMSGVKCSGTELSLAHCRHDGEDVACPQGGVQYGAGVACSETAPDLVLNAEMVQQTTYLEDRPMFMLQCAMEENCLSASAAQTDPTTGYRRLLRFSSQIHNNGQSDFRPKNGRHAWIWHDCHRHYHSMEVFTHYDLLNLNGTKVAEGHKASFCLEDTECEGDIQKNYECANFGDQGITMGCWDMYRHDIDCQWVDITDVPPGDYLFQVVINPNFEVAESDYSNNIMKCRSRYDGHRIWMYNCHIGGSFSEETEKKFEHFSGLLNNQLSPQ
In short: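 Both enzymes assayed in 1.2 M urea, 50 mM sodium borate pH 8.0, 10 mM CaCl, with 30 min compound–enzyme preincubation at 37° C before cadaverine/Amplex Red/HRP addition. Fluorescence followed 60 min at 37° C; linear-slope rates, background-subtracted, as % of DMSO control, fitted by 4-parameter variable-slope curve (bottom fixed at 0).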

[2] = biological target: T2, Recombinant human LOXL3 (lysyl oxidase like 3) (Homo sapiens, UniProt P58215); assay: LOXL3 inhibition assay (fluorometric, cadaverine/Amplex Red/HRP); assay type: biochemical; settings: IC50 class; recombinant human LOXL3, cadaverine substrate; read-out: Activity Range LOXL3
T2 construct: purchased R&D systems
T2 sequence (P58215 26-753): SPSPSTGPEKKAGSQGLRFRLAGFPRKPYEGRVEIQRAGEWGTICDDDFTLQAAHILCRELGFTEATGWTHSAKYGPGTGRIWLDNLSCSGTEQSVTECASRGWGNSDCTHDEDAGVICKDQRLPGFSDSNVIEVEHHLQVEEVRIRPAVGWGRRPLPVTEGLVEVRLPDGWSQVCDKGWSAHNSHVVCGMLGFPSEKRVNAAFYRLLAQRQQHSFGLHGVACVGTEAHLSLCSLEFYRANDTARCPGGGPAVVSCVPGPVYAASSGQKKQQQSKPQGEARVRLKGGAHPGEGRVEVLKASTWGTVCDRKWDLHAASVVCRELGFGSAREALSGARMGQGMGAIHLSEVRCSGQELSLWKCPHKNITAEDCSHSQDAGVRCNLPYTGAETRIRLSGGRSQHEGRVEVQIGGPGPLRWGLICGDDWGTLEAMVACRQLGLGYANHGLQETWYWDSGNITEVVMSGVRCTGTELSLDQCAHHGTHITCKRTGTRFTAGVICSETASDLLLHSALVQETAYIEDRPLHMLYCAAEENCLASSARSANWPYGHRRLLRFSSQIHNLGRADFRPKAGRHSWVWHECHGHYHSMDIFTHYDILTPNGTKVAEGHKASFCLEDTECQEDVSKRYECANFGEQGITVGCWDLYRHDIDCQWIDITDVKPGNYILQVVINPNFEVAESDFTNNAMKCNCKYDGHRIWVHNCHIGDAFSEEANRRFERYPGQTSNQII
Procedure: The ability of compounds to inhibit one or more of the lysyl oxidases LOXL2 and/or LOXL3 was determined using a fluorometric assay. This assay measures the activity of lysyl oxidases by coupling the reaction with horseradish peroxidase-catalyzed […]. The activity assay protocol uses cadaverine as substrate that releases hydrogen peroxide upon transformation by the specific LOX family enzyme present in the sample. Hydrogen peroxide is in turn detected using a red fluorescence substrate for HRP-coupled reactions (Amplex Red Enzyme Assays, Thermo Scientific Fisher). This leads to increase in fluorescence that can be easily detected at Ex/Em=540/590 nm in a fluorescence microplate reader.
Enzymes: Recombinant human LOXL2 (lysyl oxidase like 2) and recombinant human LOXL3 (lysyl oxidase like 3) were purchased from R&D systems and assays were performed in 1.2 M urea, 50 mM sodium borate buffer pH 8.0, and 10 mM CaCl.
Reaction: Final concentration in the LOXL2 and LOXL3 assays were as following and performed in a total volume of […]:
Experimental procedure: 5 μl of freshly prepared reaction buffer were delivered to reaction wells. Compounds were resuspended in 100% DMSO at 10 mM and delivered into buffer using acoustic technology (Echo550; nanoliter range). A 3× solution of LOXL2 or LOXL3 in reaction buffer was prepared (“enzyme solution”) and 5 μL of enzyme solution was added into the reaction wells. Buffer only was added to column 1 for no protein control. Reactions were incubated for 30 minutes at 37° C. A 3×mixture of cadaverine, Amplex Red, and HRP (“Substrate/Detection Mix) was prepared and subsequently 5 μL of the mixture added to each reaction well. Progress of reactions was monitored for 60 minutes at 37° C. using Clariostar plate reader (ex 530-12, ems 600-40). For all activity assays, pan-LOX inhibitor CCT365623 (Tang et al, 2017) and LOXL2/LOXL3 inhibitor PAT-1251 (PharmaKea) were included as standards.
Data analysis: Slope of the linear portion of the progress curve was calculated using Clariostar software. Typical analysis interval was between 8-30 min, but varied between experiments. The background subtracted signals (No protein wells are considered as background) were converted to % activity relative to DMSO controls. Data was analyzed using GraphPad Prism 4 with “sigmoidal dose-response (variable slope)”; 4 parameters with Hill Slope. Constraints: Bottom=Constant equal to 0. Top=Must be less than 120.

Row | IC50 [1] | IC50 [2] | SMILES
1 | 1 to 30 µM | > 30 µM | NCc1cccc(S(=O)(=O)N2C[C@H](C(=O)N3CCOCC3)C[C@@H](c3ccccc3)C2)n1 (racemic) [Example 114T, trans-(1-((6-(Aminomethyl)pyridin-2-yl)sulfonyl)-5-phenylpiperidin-3-yl)(morpholino)methanone 2,2,2-trifluoroacetate]
2 | > 30 µM | > 30 µM | NCc1cccc(S(=O)(=O)N2C[C@@H](C(=O)N3CCS(=O)(=O)CC3)C[C@@H](c3ccccc3)C2)n1 (racemic) [Example 115, cis-(1-((6-(Aminomethyl)pyridin-2-yl)sulfonyl)-5-phenylpiperidin-3-yl)(1,1-dioxidothiomorpholino)methanone 2,2,2-trifluoroacetate]
